According to patent US20080026943A1, “Phenyl-Substituted [1,2]-Oxazine-3,5-Dione and Dihydropyrone Derivatives” (priority 2004, published 2008):
Marks after values point to notes of the source that are not given here.

Key:
[1] = system: Pyricularia oryzae; format: cell-based; details: tested at 0.1, 1, 10 and 100 ppm, 20° C., 3 to 5 days, photometric at 620 nm
[2] = system: Echinochloa; experiment: Post-emergence herbicidal effect, greenhouse; format: in vivo; details: 320 g a.i./ha, scored after about 3 weeks
Method: (§1) Seeds of mono- and dicotyledonous weed and crop plants are placed in sandy loam soil in wood fibre pots, covered with soil and cultivated in a greenhouse under good growth conditions. 2-3 weeks after sowing, the trial plants are treated at the one-leaf stage. The test compounds, formulated as wettable powders (WP), are sprayed at various dosages with a water application rate of 600 l/ha (converted) and with addition of 0.2% wetting agent to the green parts of the plants. After the trial plants have stood in the greenhouse for about 3 weeks under optimum growth conditions, the effect of the products is scored visually in comparison to untreated controls (herbicidal effect in percent (%): 100% effect=plants have died, 0% effect=like control plants).

[3] = system: Setaria; experiment: Post-emergence herbicidal effect, greenhouse; format: in vivo; details: 320 g a.i./ha, scored after about 3 weeks
Method: as §1

[4] = system: Lolium; experiment: Post-emergence herbicidal effect, greenhouse; format: in vivo; details: 320 g a.i./ha, scored after about 3 weeks
Method: as §1

[5] = system: Setaria; experiment: Pre-emergence herbicidal effect, greenhouse; format: in vivo; details: scored after 3 weeks
Description: (§2) Seeds of mono- and dicotyledonous weed and crop plants are placed in sandy loam soil in wood fibre pots and covered with soil. The test compounds, formulated as wettable powders (WP), are then applied as an aqueous suspension with a water application rate of 600 l/ha (converted) and with addition of 0.2% wetting agent, in different dosages to the surface of the covering soil. After the treatment, the pots are placed in a greenhouse and maintained under optimum growth conditions for the test plants. The visual scoring of the emergence damage on the trial plants is carried out after a trial time of 3 weeks in comparison to untreated controls (herbicidal effect in percent (%): 100% effect=plants have died, 0% effect=like control plants).

[6] = system: Lolium; experiment: Pre-emergence herbicidal effect, greenhouse; format: in vivo; details: scored after 3 weeks
Description: as §2

[7] = logP by HPLC on a reversed-phase column (C18), EEC Directive 79/831 Annex V.A8; format: physicochemical; details: reversed-phase C18, 43° C., pH variant not stated for these values
Description: [table] The determination is made in the acidic range at a pH of 2.3 using 0.1% aqueous phosphoric acid and acetonitrile as eluents; linear gradient from 10% acetonitrile to 95% acetonitrile. The determination with LC-MS in the acidic range is made at a pH of 2.7 with 0.1% aqueous formic acid and acetonitrile (containing 0.1% formic acid) as eluents; linear gradient from 10% acetonitrile to 95% acetonitrile. The determination with LC-MS in the neutral range is made at a pH of 7.8 with 0.001 molar aqueous ammonium hydrogen carbonate solution and acetonitrile as eluents; linear gradient from 10% acetonitrile to 95% acetonitrile. Calibration is carried out with unbranched alkan-2-ones (having 3 to 16 carbon atoms), for which the logP values are known (logP values determined on the basis of the retention times by means of linear interpolation between two successive alkanones).

[8] = system: green peach aphid (Myzus persicae); experiment: Myzus persicae test (MYZUPE), leaf immersion; format: in vivo; details: 500 ppm; cabbage leaves immersed
Method: [table] A suitable preparation of active compound is prepared by mixing 1 part by weight of active compound with the stated amounts of solvent and emulsifier and diluting the concentrate with emulsifier-containing water to the desired concentration. Leaves of cabbage (Brassica oleracea) heavily infested by the green peach aphid (Myzus persicae) are treated by being immersed in the preparation of active compound at the desired concentration. After the desired time, the kill rate in % is determined. 100% means that all of the aphids have been killed; 0% means that no aphids have been killed.

[9] = system: Sorghum; experiment: Post-emergence herbicidal effect, greenhouse; format: in vivo; details: 320 g a.i./ha, scored after about 3 weeks
Method: as §1

[10] = system: Digitaria; experiment: Post-emergence herbicidal effect, greenhouse; format: in vivo; details: 320 g a.i./ha, scored after about 3 weeks
Method: as §1

[11] = system: Sugarbeets; experiment: Post-emergence herbicidal effect, greenhouse; format: in vivo; details: 320 g a.i./ha, scored after about 3 weeks
Method: as §1

[12] = system: Venturia inaequalis; experiment: Venturia test (apple)/protective; format: in vivo; details: protective, 100 g/ha, 10 days after inoculation
Method: [table] A suitable preparation of active compound is prepared by mixing 1 part by weight of active compound with the stated amounts of solvent and emulsifier and diluting the concentrate with water to the desired concentration. To test for protective activity, young plants are sprayed with the preparation of active compound at the stated application rate. After the spray coating has dried on, the plants are inoculated with an aqueous conidia suspension of the causative organism of apple scab, Venturia inaequalis, and then spend 1 day in an incubation cabin at about 20° C. and 100% relative humidity. Thereafter the plants are placed in a greenhouse at about 21° C. and about 90% relative humidity.

[13] = system: Echinochloa; experiment: Pre-emergence herbicidal effect, greenhouse; format: in vivo; details: 1000 g a.i./ha, scored after 3 weeks
Description: as §2

[14] = system: Botrytis cinerea; experiment: Botrytis test (bean)/protective; format: in vivo; details: protective, 500 g/ha, two days after inoculation
Method: A suitable preparation of active compound is prepared by mixing 1 part by weight of active compound with the stated amounts of solvent and emulsifier and diluting the concentrate with water to the desired concentration.
To test for protective activity, young plants are sprayed with the preparation of active compound at the stated application rate. After the spray coating has dried on, two small pieces of agar colonized by Botrytis cinerea are placed on each leaf. The inoculated plants are placed in a darkened chamber at about 20° C. and 100% humidity.
Two days after inoculation, the size of the infestation spots on the leaves is evaluated. 0% denotes an efficacy corresponding to that of the control, while an efficacy of 100% denotes a total absence of observed infestation.

[15] = system: Plasmopara viticola; experiment: Plasmopara test (grapevine)/protective; format: in vivo; details: protective, 100 g/ha, 6 days after inoculation
Method: [table] A suitable preparation of active compound is prepared by mixing 1 part by weight of active compound with the stated amounts of solvent and emulsifier and diluting the concentrate with water to the desired concentration. To test for protective activity, young plants are sprayed with the preparation of active compound at the stated application rate. After the spray coating has dried on, the plants are inoculated with an aqueous spore suspension of Plasmopara viticola and then spend 1 day in an incubation cabin at about 20° C. and 100% relative humidity. Thereafter the plants are placed in a greenhouse for 4 days at about 21° C. and about 90% humidity. The plants are then moistened and placed in an incubation cabin for 1 day.

[16] = system: Sinapis; experiment: Post-emergence herbicidal effect, greenhouse; format: in vivo; details: 320 g a.i./ha, scored after about 3 weeks
Method: as §1

Structure (SMILES)	ED50 (dose leading to 50% inhibition of fungal growth) [1] [ppm]	herbicidal effect in percent, Echinochloa [2] [%]	herbicidal effect in percent, Setaria [3] [%]	herbicidal effect in percent, Lolium [4] [%]	further results
Cc1ccc(C2(Cl)C(=O)N(C)OC(C)(C)C2=O)c(Cl)c1 (stereo not shown) [Example I-1-1]	<0.1	–	–	–	–
CCc1cc(Cl)cc(Cl)c1C1(Cl)C(=O)N(C)OC(C)(C)C1=O (stereo not shown) [Example I-1-7]	–	90	90	90	herbicidal effect in percent, Setaria ([5]; 320 g a.i./ha): 100%; herbicidal effect in percent, Lolium ([6]; 320 g a.i./ha): 100%
CCc1cc(Br)ccc1C1(Cl)C(=O)N(C)OC(C)(C)C1=O (stereo not shown) [Example I-1-10]	–	90	80	90	–
CN1OC(C)(C)C(=O)C(Cl)(c2cc(-c3ccc(Cl)cc3)ccc2Cl)C1=O (stereo not shown) [Example I-1-11]	–	–	–	–	log P [7]: log P 4.58*
Cc1ccc(-c2ccc(C(F)(F)F)cc2)cc1C1(Cl)C(=O)N(C)OC(C)(C)C1=O (stereo not shown) [Example I-1-12]	–	–	–	–	log P [7]: log P 4.56*
CC1(C)OC(=O)C(Cl)(c2cc(-c3ccc(Cl)cc3)ccc2Cl)C(=O)C1(C)C (stereo not shown) [Example I-2-1]	0.48	–	–	–	activity (kill rate in %) [8]: ≥ 80%
Cc1ccc(-c2ccc(Cl)cc2)cc1C1(Cl)C(=O)OC2CCCCC2(C)C1=O (stereo not shown) [Example I-2-2]	0.12	100	100	80	herbicidal effect in percent, Sorghum [9]: 80%; herbicidal effect in percent, Digitaria [10]: 100%; herbicidal effect in percent, Sugarbeets [11]: 0%; Efficacy in % [12]: 99%; herbicidal effect in percent, Echinochloa [13]: 100%; herbicidal effect in percent, Setaria ([5]; 1000 g a.i./ha): 100%; herbicidal effect in percent, Lolium ([6]; 1000 g a.i./ha): 80%; Efficacy in % [14]: 93%; Efficacy in % [15]: 100%
CC1(C)OC(=O)C(Cl)(c2cc(-c3ccc(Cl)cc3Cl)ccc2Cl)C(=O)C1(C)C (stereo not shown) [Example I-2-6]	–	90	90	70	herbicidal effect in percent, Sinapis [16]: 40%
Cc1ccc(-c2ccc(Cl)cc2)cc1C1(Cl)C(=O)OC(C)(C)C(C)(C)C1=O (stereo not shown) [Example I-2-10]	–	70	90	70	herbicidal effect in percent, Sinapis [16]: 80%
